# Measured values reported in patent US20260193264A1, “BENZOYPARAZINE PYRAZINES AND THEIR USES” (FOGHORN THERAPEUTICS INC., priority 2022, published 2026).
# Tests used:
# [1] = target: T1, HiBit-BRG1 fusion protein in stable HeLa cell line expressing HiBit-BRG1 and LgBit (Homo sapiens, UniProt P51532); assay: HiBiT-BRG1 cell-based degradation assay (Nano-Glo HiBiT, 24 h); conditions: HeLa HiBit-BRG1/LgBit cells; for DC50: read-out: BRMG1 HiBit Degradation IC50; for Dmax: top dose 30 μM, read-out: BRG1 HiBit Degradation Maximum (%)
# T1 construct: expressed in transfected cells
# T1 sequence (P51532 whole entry, the tested form may be a part): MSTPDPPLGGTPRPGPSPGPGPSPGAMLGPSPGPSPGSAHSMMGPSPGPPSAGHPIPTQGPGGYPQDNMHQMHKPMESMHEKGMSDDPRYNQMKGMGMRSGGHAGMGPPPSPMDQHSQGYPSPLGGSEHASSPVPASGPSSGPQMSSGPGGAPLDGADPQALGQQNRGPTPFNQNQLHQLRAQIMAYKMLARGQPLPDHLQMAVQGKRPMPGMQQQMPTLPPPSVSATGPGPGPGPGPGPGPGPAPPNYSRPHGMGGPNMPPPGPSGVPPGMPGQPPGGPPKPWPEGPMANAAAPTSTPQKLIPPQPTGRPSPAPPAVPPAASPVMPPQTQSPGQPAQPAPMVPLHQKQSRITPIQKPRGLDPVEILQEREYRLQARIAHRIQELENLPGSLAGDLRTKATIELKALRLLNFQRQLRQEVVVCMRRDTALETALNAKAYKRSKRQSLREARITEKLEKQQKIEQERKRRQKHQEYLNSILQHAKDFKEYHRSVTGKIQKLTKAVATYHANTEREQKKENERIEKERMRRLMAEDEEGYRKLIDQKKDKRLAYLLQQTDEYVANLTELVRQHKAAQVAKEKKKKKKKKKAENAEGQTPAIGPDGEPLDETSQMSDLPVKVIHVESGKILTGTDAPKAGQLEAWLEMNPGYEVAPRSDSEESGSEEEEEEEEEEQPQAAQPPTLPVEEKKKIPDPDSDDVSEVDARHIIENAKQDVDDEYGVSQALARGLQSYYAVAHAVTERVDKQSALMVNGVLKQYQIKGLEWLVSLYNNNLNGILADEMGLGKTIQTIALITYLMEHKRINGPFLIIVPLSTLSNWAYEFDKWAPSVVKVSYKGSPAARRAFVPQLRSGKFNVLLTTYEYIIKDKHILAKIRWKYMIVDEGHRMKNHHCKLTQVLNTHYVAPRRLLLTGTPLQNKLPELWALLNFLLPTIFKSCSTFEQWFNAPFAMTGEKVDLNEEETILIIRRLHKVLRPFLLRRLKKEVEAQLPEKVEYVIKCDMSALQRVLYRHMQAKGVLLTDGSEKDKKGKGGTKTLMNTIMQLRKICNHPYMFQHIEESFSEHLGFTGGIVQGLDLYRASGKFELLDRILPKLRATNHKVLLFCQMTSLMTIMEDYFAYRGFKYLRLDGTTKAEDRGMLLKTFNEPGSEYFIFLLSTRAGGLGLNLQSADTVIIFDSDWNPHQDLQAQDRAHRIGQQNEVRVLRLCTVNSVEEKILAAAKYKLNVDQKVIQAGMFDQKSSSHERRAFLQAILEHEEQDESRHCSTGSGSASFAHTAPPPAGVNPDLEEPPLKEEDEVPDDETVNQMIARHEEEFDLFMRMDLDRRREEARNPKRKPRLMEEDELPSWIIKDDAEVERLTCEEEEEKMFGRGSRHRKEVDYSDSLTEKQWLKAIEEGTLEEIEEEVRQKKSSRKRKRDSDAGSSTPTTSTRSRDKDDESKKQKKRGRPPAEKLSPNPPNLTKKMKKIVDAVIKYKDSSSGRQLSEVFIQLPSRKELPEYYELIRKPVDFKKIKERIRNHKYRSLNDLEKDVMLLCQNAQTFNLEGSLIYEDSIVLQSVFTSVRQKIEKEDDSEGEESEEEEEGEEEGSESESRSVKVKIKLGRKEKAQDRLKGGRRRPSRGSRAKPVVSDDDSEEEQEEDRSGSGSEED
# Method: Procedure: A stable HeLa cell line expressing HiBiT-BRM was generated. On day 0, 5000 cells were seeded in 40 μL of media into each well of 384-well cell culture plates. […] Subsequently plates were incubated for 24 h in a standard tissue culture incubator and equilibrated at room temperature for 15 minutes. Nano-Glo HiBiT Lytic Detection System (Promega N3050) reagent was freshly prepared and 20 ul was added to each well. Upon addition of this LgBit-containing reagent, the HiBiT and LgBiT proteins associate to form the luminescent NanoBiT luciferase. The plates were shaken for 10 minutes at room temperature and the bioluminescence read using an EnVision plate reader (PerkinElmer). For measurement of BRG1 degradation, a stable HeLa cell line expressing HiBit-BRG1 and LgBit was generated. The same protocol as above was then followed. The degradation % was calculated using the following formula: % degradation=100%−100%×(Lumsample−LumLC)/(LumHC−LumLC). DMSO treated cells are employed as High Control (HC) and 2 μM of a known BRM/BRG1 degrader standard treated cells are employed as Low Control (LC).
# [2] = target: T2, HiBiT-BRM fusion protein in stable HeLa cell line (Homo sapiens, UniProt P51531); assay: HiBiT-BRM cell-based degradation assay (Nano-Glo HiBiT Lytic Detection, 24 h); design: DC50: scale not given here; conditions: HeLa HiBiT-BRM cells; for DC50: read-out: BRM HiBit Degradation IC50; for BRM HiBit Degradation Maximum (%): top dose 30 μM
# T2 construct: expressed in transfected cells
# T2 sequence (P51531 whole entry, the tested form may be a part): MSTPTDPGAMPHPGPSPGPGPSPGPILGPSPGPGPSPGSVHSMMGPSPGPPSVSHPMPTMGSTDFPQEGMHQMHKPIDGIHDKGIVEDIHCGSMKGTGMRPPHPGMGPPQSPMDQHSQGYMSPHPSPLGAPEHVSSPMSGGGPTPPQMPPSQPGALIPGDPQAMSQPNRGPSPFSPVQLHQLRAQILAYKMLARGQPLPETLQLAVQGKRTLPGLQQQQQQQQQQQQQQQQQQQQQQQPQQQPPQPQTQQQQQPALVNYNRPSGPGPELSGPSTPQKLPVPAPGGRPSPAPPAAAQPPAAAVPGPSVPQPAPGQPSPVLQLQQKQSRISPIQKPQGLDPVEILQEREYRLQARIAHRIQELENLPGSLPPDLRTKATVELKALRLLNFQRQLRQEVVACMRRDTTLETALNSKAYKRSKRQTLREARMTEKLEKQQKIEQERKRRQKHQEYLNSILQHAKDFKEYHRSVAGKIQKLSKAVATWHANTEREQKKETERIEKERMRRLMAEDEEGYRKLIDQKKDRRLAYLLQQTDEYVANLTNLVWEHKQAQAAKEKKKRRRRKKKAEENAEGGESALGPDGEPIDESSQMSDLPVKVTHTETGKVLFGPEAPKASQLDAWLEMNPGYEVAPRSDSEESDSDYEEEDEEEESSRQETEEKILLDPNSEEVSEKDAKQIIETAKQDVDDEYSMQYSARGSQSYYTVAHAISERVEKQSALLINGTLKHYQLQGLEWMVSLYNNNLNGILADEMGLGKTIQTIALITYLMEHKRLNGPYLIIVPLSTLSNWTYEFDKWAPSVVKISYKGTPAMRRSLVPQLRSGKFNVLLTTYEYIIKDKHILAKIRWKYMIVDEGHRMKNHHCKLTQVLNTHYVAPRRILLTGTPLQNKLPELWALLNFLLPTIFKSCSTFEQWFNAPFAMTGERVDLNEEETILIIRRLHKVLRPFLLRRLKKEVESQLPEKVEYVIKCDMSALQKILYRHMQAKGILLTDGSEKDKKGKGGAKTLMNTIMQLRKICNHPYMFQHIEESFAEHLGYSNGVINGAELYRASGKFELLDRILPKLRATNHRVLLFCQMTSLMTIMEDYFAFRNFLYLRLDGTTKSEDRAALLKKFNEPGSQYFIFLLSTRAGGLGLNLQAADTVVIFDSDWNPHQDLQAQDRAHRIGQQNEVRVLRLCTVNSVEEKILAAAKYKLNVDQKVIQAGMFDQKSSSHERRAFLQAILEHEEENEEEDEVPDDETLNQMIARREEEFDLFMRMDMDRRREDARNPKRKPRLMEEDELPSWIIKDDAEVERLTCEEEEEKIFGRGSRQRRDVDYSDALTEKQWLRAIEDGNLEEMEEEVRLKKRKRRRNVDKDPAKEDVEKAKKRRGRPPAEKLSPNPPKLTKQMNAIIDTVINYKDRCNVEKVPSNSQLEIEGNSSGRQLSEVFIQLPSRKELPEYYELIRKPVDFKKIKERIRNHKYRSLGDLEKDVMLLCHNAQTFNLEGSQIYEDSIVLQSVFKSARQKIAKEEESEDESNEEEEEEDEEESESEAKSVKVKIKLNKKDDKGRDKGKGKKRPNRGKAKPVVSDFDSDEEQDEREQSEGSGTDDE
# Method: Procedure: A stable HeLa cell line expressing HiBiT-BRM was generated. On day 0, 5000 cells were seeded in 40 μL of media into each well of 384-well cell culture plates. On day 1, cells were treated with 120 nL DMSO or 120 nL of 3-fold serially DMSO-diluted compounds (10 points in duplicate with 30 μM as final top dose). Subsequently plates were incubated for 24 h in a standard tissue culture incubator and equilibrated at room temperature for 15 minutes. Nano-Glo HiBiT Lytic Detection System (Promega N3050) reagent was freshly prepared and 20 ul was added to each well. Upon addition of this LgBit-containing reagent, the HiBiT and LgBiT proteins associate to form the luminescent NanoBiT luciferase. The plates were shaken for 10 minutes at room temperature and the bioluminescence read using an EnVision plate reader (PerkinElmer).
# The degradation % was calculated using the following formula: % degradation=100%−100%×(Lumsample−LumLC)/(LumHC−LumLC). DMSO treated cells are employed as High Control (HC) and 2 μM of a known BRM/BRG1 degrader standard treated cells are employed as Low Control (LC).
Compound,DC50 [1] [nM],Dmax [1] [%],DC50 [2] [nM],BRM HiBit Degradation Maximum (%) [2]
"Cc1ncsc1-c1ccc([C@H](C)NC(=O)[C@@H]2C[C@@H](O)CN2C(=O)[C@@H](c2cc(N3CCC(N4CC(c5ccc6nnc(-c7ccccc7O)cc6c5)C4)CC3)no2)C(C)C)cc1 [Compound 3, (2S,4R)-4-hydroxy-1-((R)-2-(3-(4-(3-(3-(2-hydroxyphenyl)cinnolin-6-yl)azetidin-1-yl)piperidin-1-yl)isoxazol-5-yl)-3-methylbutanoyl)-N-((S)-1-(4-(4-methylthiazol-5-yl)phenyl)ethyl)pyrrolidine-2-carboxamide]",< 10,> 75,< 10,A (“A” indicates maximum degradation ≥75%)
"Cc1ncsc1-c1ccc([C@H](C)NC(=O)[C@@H]2C[C@@H](O)CN2C(=O)[C@@H](c2cc(-c3cnc(N4CC(c5ccc6nnc(-c7ccccc7O)cc6c5)C4)nc3)no2)C(C)C)cc1 [Compound 4, (2S,4R)-4-hydroxy-1-[(2R)-2-[3-(2-{3-[3-(2-hydroxyphenyl)cinnolin-6-yl]azetidin-1-yl}pyrimidin-5-yl)-1,2-oxazol-5-yl]-3-methylbutanoyl]-N-[(1S)-1-[4-(4-methyl-1,3-thiazol-5-yl)phenyl]ethyl]pyrrolidine-2-carboxamide]",> 10,> 75,< 10,A (“A” indicates maximum degradation ≥75%)
"Cc1ncsc1-c1ccc([C@H](C)NC(=O)[C@@H]2C[C@@H](O)CN2C(=O)[C@H](c2cc(-c3cnc(N4CC(c5ccc6nnc(-c7ccccc7O)cc6c5)C4)nc3)no2)C(C)C)cc1 [Compound 5, (2S,4R)-4-hydroxy-1-[(2S)-2-[3-(2-{3-[3-(2-hydroxyphenyl)cinnolin-6-yl]azetidin-1-yl}pyrimidin-5-yl)-1,2-oxazol-5-yl]-3-methylbutanoyl]-N-[(1S)-1-[4-(4-methyl-1,3-thiazol-5-yl)phenyl]ethyl]pyrrolidine-2-carboxamide]",–,< 50,> 100,B (“B” indicates maximum degradation ≥50%)
"Cc1ncsc1-c1ccc([C@H](C)NC(=O)[C@@H]2C[C@@H](O)CN2C(=O)[C@@H](c2cc(OCC(=O)N3CC(c4ccc5nnc(-c6ccccc6O)cc5c4)C3)no2)C(C)C)cc1 [Compound 6, (2S,4R)-4-hydroxy-1-[(2R)-2-[3-(2-{3-[3-(2-hydroxyphenyl)cinnolin-6-yl]azetidin-1-yl}-2-oxoethoxy)-1,2-oxazol-5-yl]-3-methylbutanoyl]-N-[(1S)-1-[4-(4-methyl-1,3-thiazol-5-yl)phenyl]ethyl]pyrrolidine-2-carboxamide]",–,< 50,> 100,B (“B” indicates maximum degradation ≥50%)
"Cc1ncsc1-c1ccc([C@H](C)NC(=O)[C@@H]2C[C@@H](O)CN2C(=O)[C@@H](c2cc(N3CCC(C(=O)N4CC(c5ccc6nnc(-c7ccccc7O)cc6c5)C4)CC3)no2)C(C)C)cc1 [Compound 7, (2S,4R)-4-hydroxy-1-((R)-2-(3-(4-(3-(3-(2-hydroxyphenyl)cinnolin-6-yl)azetidine-1-carbonyl)piperidin-1-yl)isoxazol-5-yl)-3-methylbutanoyl)-N-((S)-1-(4-(4-methylthiazol-5-yl)phenyl)ethyl)pyrrolidine-2-carboxamide]",> 100,> 50,> 10,A (“A” indicates maximum degradation ≥75%)
"Cc1ncsc1-c1ccc([C@H](C)NC(=O)[C@@H]2C[C@@H](O)CN2C(=O)[C@@H](c2cc(OCCN3CC(c4ccc5cc(-c6ccccc6O)nnc5c4)C3)no2)C(C)C)cc1 [Compound 8, (2S,4R)-4-hydroxy-1-[(2R)-2-[3-(2-{3-[3-(2-hydroxyphenyl)cinnolin-7-yl]azetidin-1-yl}ethoxy)-1,2-oxazol-5-yl]-3-methylbutanoyl]-N-[(1S)-1-[4-(4-methyl-1,3-thiazol-5-yl)phenyl]ethyl]pyrrolidine-2-carboxamide]",–,> 50,< 10,A (“A” indicates maximum degradation ≥75%)
"Cc1ncsc1-c1ccc([C@H](C)NC(=O)[C@@H]2C[C@@H](O)CN2C(=O)[C@@H](c2cc(N3CCC(CN4CC(c5ccc6cc(-c7ccccc7O)nnc6c5)C4)CC3)no2)C(C)C)cc1 [Compound 9, (2S,4R)-4-hydroxy-1-((R)-2-(3-(4-((3-(3-(2-hydroxyphenyl)cinnolin-7-yl)azetidin-1-yl)methyl)piperidin-1-yl)isoxazol-5-yl)-3-methylbutanoyl)-N-((S)-1-(4-(4-methylthiazol-5-yl)phenyl)ethyl)pyrrolidine-2-carboxamide]",–,< 50,> 10,A (“A” indicates maximum degradation ≥75%)
"Cc1ncsc1-c1ccc([C@H](C)NC(=O)[C@@H]2C[C@@H](O)CN2C(=O)[C@@H](c2cc(N3CCC(N4CC(c5ccc6cc(-c7ccccc7O)nnc6c5)C4)CC3)no2)C(C)C)cc1 [Compound 10, (2S,4R)-4-hydroxy-1-((R)-2-(3-(4-(3-(3-(2-hydroxyphenyl)cinnolin-7-yl)azetidin-1-yl)piperidin-1-yl)isoxazol-5-yl)-3-methylbutanoyl)-N-((S)-1-(4-(4-methylthiazol-5-yl)phenyl)ethyl)pyrrolidine-2-carboxamide]",–,< 50,> 10,A (“A” indicates maximum degradation ≥75%)

# Continued, in another order:
DC50 [1] [nM],Dmax [1] [%],DC50 [2] [nM],Compound,BRM HiBit Degradation Maximum (%) [2]
–,< 50,< 10,"Cc1ncsc1-c1ccc([C@H](C)NC(=O)[C@@H]2C[C@@H](O)CN2C(=O)[C@@H](c2cc(-c3cnc(N4CC(c5ccc6cc(-c7ccccc7O)nnc6c5)C4)nc3)no2)C(C)C)cc1 [Compound 11, (2S,4R)-4-hydroxy-1-[(2R)-2-[3-(2-{3-[3-(2-hydroxyphenyl)cinnolin-7-yl]azetidin-1-yl}pyrimidin-5-yl)-1,2-oxazol-5-yl]-3-methylbutanoyl]-N-[(1S)-1-[4-(4-methyl-1,3-thiazol-5-yl)phenyl]ethyl]pyrrolidine-2-carboxamide]",A (“A” indicates maximum degradation ≥75%)
–,< 50,> 100,"Cc1ncsc1-c1ccc([C@H](C)NC(=O)[C@@H]2C[C@@H](O)CN2C(=O)[C@H](c2cc(-c3cnc(N4CC(c5ccc6cc(-c7ccccc7O)nnc6c5)C4)nc3)no2)C(C)C)cc1 [Compound 12, (2S,4R)-4-hydroxy-1-[(2S)-2-[3-(2-{3-[3-(2-hydroxyphenyl)cinnolin-7-yl]azetidin-1-yl}pyrimidin-5-yl)-1,2-oxazol-5-yl]-3-methylbutanoyl]-N-[(1S)-1-[4-(4-methyl-1,3-thiazol-5-yl)phenyl]ethyl]pyrrolidine-2-carboxamide]",C (“C” indicates maximum degradation <50%)
< 10,> 75,< 10,"Cc1ncsc1-c1ccc([C@H](C)NC(=O)[C@@H]2C[C@@H](O)CN2C(=O)[C@@H](c2cc(-c3cnc(N4CCN(c5ccc6nnc(-c7ccccc7O)cc6c5)CC4)nc3)no2)C(C)C)cc1 [Compound 13, (2S,4R)-4-hydroxy-1-((R)-2-(3-(2-(4-(3-(2-hydroxyphenyl)cinnolin-6-yl)piperazin-1-yl)pyrimidin-5-yl)isoxazol-5-yl)-3-methylbutanoyl)-N—((S)-1-(4-(4-methylthiazol-5-yl)phenyl)ethyl)pyrrolidine-2-carboxamide]",A (“A” indicates maximum degradation ≥75%)
> 100,> 75,> 10,"Cc1ncsc1-c1ccc([C@H](C)NC(=O)[C@@H]2C[C@@H](O)CN2C(=O)[C@H](c2cc(-c3cnc(N4CCN(c5ccc6nnc(-c7ccccc7O)cc6c5)CC4)nc3)no2)C(C)C)cc1 [Compound 14, (2S,4R)-4-hydroxy-1-((S)-2-(3-(2-(4-(3-(2-hydroxyphenyl)cinnolin-6-yl)piperazin-1-yl)pyrimidin-5-yl)isoxazol-5-yl)-3-methylbutanoyl)-N—((S)-1-(4-(4-methylthiazol-5-yl)phenyl)ethyl)pyrrolidine-2-carboxamide]",A (“A” indicates maximum degradation ≥75%)
–,< 50,> 10,Cc1ncsc1-c1ccc([C@H](C)NC(=O)[C@@H]2C[C@@H](O)CN2C(=O)[C@H](c2cc(-c3cnc(N4CC5(CC(c6ccc7cc(-c8ccccc8O)nnc7c6)C5)C4)nc3)no2)C(C)C)cc1 [Compound 17],A (“A” indicates maximum degradation ≥75%)
